From the supplement of paper PMC10307832

Key:
Test in all cases: relative viability (nuclei count vs DMSO), 5 days (fraction); higher = more cells survive
[1] = compound: COc1cc2nc(N3CCCN(C)CC3)nc(NC3CCN(Cc4ccccc4)CC3)c2cc1OC + Nc1nc2[nH]cc(CCc3ccc(C(=O)N[C@@H](CCC(=O)O)C(=O)O)cc3)c2c(=O)[nH]1 [Pemetrexed] (partner 0.2 µM)
How it was run: (§1)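 Medians of duplicate plates are given as relative viability. That measure is the nuclei count in treated wells divided by the count in vehicle wells. Counts were taken on 4× images of lung cancer cell lines in 1536-well plates, 5 days after pin-tool dosing the day after seeding with one drug alone or a fixed anchor-drug dose plus five library-drug doses (not always all listed) in √10 steps.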

AZD6482 + Vorinostat = compound: Cc1cc([C@@H](C)Nc2ccccc2C(=O)O)c2nc(N3CCOCC3)cc(=O)n2c1 [AZD6482] + O=C(CCCCCCC(=O)Nc1ccccc1)NO [Vorinostat] (partner 1 µM)
How it was run: as §1

AZD6482 + Pictilisib = compound: Cc1cc([C@@H](C)Nc2ccccc2C(=O)O)c2nc(N3CCOCC3)cc(=O)n2c1 [AZD6482] + CS(=O)(=O)N1CCN(Cc2cc3nc(-c4cccc5[nH]ncc45)nc(N4CCOCC4)c3s2)CC1 [Pictilisib] (partner 1 µM)
How it was run: as §1

[2] = compound: COc1cc2nc(N3CCCN(C)CC3)nc(NC3CCN(Cc4ccccc4)CC3)c2cc1OC + O=C(c1cc(Cc2n[nH]c(=O)c3ccccc23)ccc1F)N1CCN(C(=O)C2CC2)CC1 [Olaparib] (partner 8 µM)
How it was run: as §1

NCI-H2405
relative viability ([1]; first compound 0.2 µM): 1.02
relative viability ([1]; first compound 0.6325 µM): 1.12
relative viability ([1]; first compound 2 µM): 1.11
relative viability ([1]; first compound 6.325 µM): 1.05
relative viability (AZD6482 + Vorinostat; first compound 0.08 µM): 0.762
relative viability (AZD6482 + Vorinostat; first compound 0.253 µM): 0.9
relative viability (AZD6482 + Vorinostat; first compound 0.8 µM): 1.03
relative viability (AZD6482 + Vorinostat; first compound 2.53 µM): 0.644
relative viability (AZD6482 + Vorinostat; first compound 8 µM): 0.501
relative viability (AZD6482 + Pictilisib; first compound 0.08 µM): 0.31
relative viability (AZD6482 + Pictilisib; first compound 0.8 µM): 0.559
relative viability (AZD6482 + Pictilisib; first compound 2.53 µM): 0.381
relative viability (AZD6482 + Pictilisib; first compound 8 µM): 0.386
relative viability ([2]; first compound 0.2 µM): 0.886
relative viability ([2]; first compound 0.6325 µM): 0.847
relative viability ([2]; first compound 2 µM): 0.91
relative viability ([2]; first compound 6.325 µM): 0.883

NCI-H3122
relative viability ([1]; first compound 0.2 µM): 0.206
relative viability ([1]; first compound 0.6325 µM): 0.198
relative viability ([1]; first compound 2 µM): 0.19
relative viability ([1]; first compound 6.325 µM): 0.2
relative viability (AZD6482 + Vorinostat; first compound 0.08 µM): 1.01
relative viability (AZD6482 + Vorinostat; first compound 0.253 µM): 1.1
relative viability (AZD6482 + Vorinostat; first compound 0.8 µM): 0.829
relative viability (AZD6482 + Vorinostat; first compound 2.53 µM): 0.84
relative viability (AZD6482 + Vorinostat; first compound 8 µM): 0.796
relative viability (AZD6482 + Pictilisib; first compound 0.08 µM): 0.644
relative viability (AZD6482 + Pictilisib; first compound 0.253 µM): 0.572
relative viability (AZD6482 + Pictilisib; first compound 0.8 µM): 0.642
relative viability (AZD6482 + Pictilisib; first compound 2.53 µM): 0.407
relative viability (AZD6482 + Pictilisib; first compound 8 µM): 0.636
relative viability ([2]; first compound 0.2 µM): 0.644
relative viability ([2]; first compound 0.6325 µM): 0.616
relative viability ([2]; first compound 2 µM): 0.634
relative viability ([2]; first compound 6.325 µM): 0.629

PC-3 [JPC-3]
relative viability ([1]; first compound 0.2 µM): 0.972
relative viability ([1]; first compound 0.6325 µM): 1.15
relative viability ([1]; first compound 2 µM): 1.11
relative viability ([1]; first compound 6.325 µM): 1.01
relative viability (AZD6482 + Vorinostat; first compound 0.08 µM): 0.766
relative viability (AZD6482 + Vorinostat; first compound 0.253 µM): 0.797
relative viability (AZD6482 + Vorinostat; first compound 0.8 µM): 0.84
relative viability (AZD6482 + Vorinostat; first compound 2.53 µM): 0.457
relative viability (AZD6482 + Vorinostat; first compound 8 µM): 0.571
relative viability (AZD6482 + Pictilisib; first compound 0.08 µM): 0.601
relative viability (AZD6482 + Pictilisib; first compound 0.253 µM): 0.743
relative viability (AZD6482 + Pictilisib; first compound 0.8 µM): 0.739
relative viability (AZD6482 + Pictilisib; first compound 2.53 µM): 0.652
relative viability (AZD6482 + Pictilisib; first compound 8 µM): 0.681
relative viability ([2]; first compound 0.2 µM): 1.2
relative viability ([2]; first compound 0.6325 µM): 1.24
relative viability ([2]; first compound 2 µM): 1.31
relative viability ([2]; first compound 6.325 µM): 0.966

PC-14
relative viability ([1]; first compound 0.2 µM): 0.133
relative viability ([1]; first compound 0.6325 µM): 0.153
relative viability ([1]; first compound 2 µM): 0.118
relative viability ([1]; first compound 6.325 µM): 0.0737
relative viability (AZD6482 + Vorinostat; first compound 0.08 µM): 0.667
relative viability (AZD6482 + Vorinostat; first compound 0.253 µM): 0.716
relative viability (AZD6482 + Vorinostat; first compound 0.8 µM): 0.712
relative viability (AZD6482 + Vorinostat; first compound 2.53 µM): 0.487
relative viability (AZD6482 + Vorinostat; first compound 8 µM): 0.769
relative viability (AZD6482 + Pictilisib; first compound 0.08 µM): 0.575
relative viability (AZD6482 + Pictilisib; first compound 0.253 µM): 0.632
relative viability (AZD6482 + Pictilisib; first compound 0.8 µM): 0.591
relative viability (AZD6482 + Pictilisib; first compound 2.53 µM): 0.376
relative viability (AZD6482 + Pictilisib; first compound 8 µM): 0.771
relative viability ([2]; first compound 0.2 µM): 0.322
relative viability ([2]; first compound 0.6325 µM): 0.374
relative viability ([2]; first compound 2 µM): 0.279
relative viability ([2]; first compound 6.325 µM): 0.0641

RERF-LC-KJ
relative viability ([1]; first compound 0.2 µM): 0.419
relative viability ([1]; first compound 0.6325 µM): 0.455
relative viability ([1]; first compound 2 µM): 0.464
relative viability ([1]; first compound 6.325 µM): 0.447
relative viability (AZD6482 + Vorinostat; first compound 0.08 µM): 0.648
relative viability (AZD6482 + Vorinostat; first compound 0.253 µM): 0.616
relative viability (AZD6482 + Vorinostat; first compound 0.8 µM): 0.557
relative viability (AZD6482 + Vorinostat; first compound 2.53 µM): 0.648
relative viability (AZD6482 + Vorinostat; first compound 8 µM): 0.514
relative viability (AZD6482 + Pictilisib; first compound 0.08 µM): 0.492
relative viability (AZD6482 + Pictilisib; first compound 0.253 µM): 0.488
relative viability (AZD6482 + Pictilisib; first compound 0.8 µM): 0.502
relative viability (AZD6482 + Pictilisib; first compound 2.53 µM): 0.535
relative viability (AZD6482 + Pictilisib; first compound 8 µM): 0.7
relative viability ([2]; first compound 0.2 µM): 0.857
relative viability ([2]; first compound 0.6325 µM): 0.898
relative viability ([2]; first compound 2 µM): 1.04
relative viability ([2]; first compound 6.325 µM): 0.637

SK-LU-1
relative viability ([1]; first compound 0.2 µM): 0.952
relative viability ([1]; first compound 0.6325 µM): 0.949
relative viability ([1]; first compound 2 µM): 1.03
relative viability ([1]; first compound 6.325 µM): 0.889
relative viability (AZD6482 + Vorinostat; first compound 0.253 µM): 0.767
relative viability (AZD6482 + Vorinostat; first compound 0.8 µM): 0.812
relative viability (AZD6482 + Vorinostat; first compound 2.53 µM): 0.591
relative viability (AZD6482 + Vorinostat; first compound 8 µM): 0.517
relative viability (AZD6482 + Pictilisib; first compound 0.253 µM): 0.535
relative viability (AZD6482 + Pictilisib; first compound 0.8 µM): 0.622
relative viability (AZD6482 + Pictilisib; first compound 2.53 µM): 0.461
relative viability (AZD6482 + Pictilisib; first compound 8 µM): 0.448
relative viability ([2]; first compound 0.2 µM): 0.45
relative viability ([2]; first compound 0.6325 µM): 0.384
relative viability ([2]; first compound 2 µM): 0.564
relative viability ([2]; first compound 6.325 µM): 0.366

SK-MES-1
relative viability ([1]; first compound 0.2 µM): 1.06
relative viability ([1]; first compound 0.6325 µM): 0.887
relative viability ([1]; first compound 2 µM): 0.904
relative viability ([1]; first compound 6.325 µM): 0.495
relative viability (AZD6482 + Vorinostat; first compound 0.08 µM): 0.842
relative viability (AZD6482 + Vorinostat; first compound 0.253 µM): 1.05
relative viability (AZD6482 + Vorinostat; first compound 0.8 µM): 1.02
relative viability (AZD6482 + Vorinostat; first compound 2.53 µM): 0.594
relative viability (AZD6482 + Vorinostat; first compound 8 µM): 0.684
relative viability (AZD6482 + Pictilisib; first compound 0.08 µM): 0.285
relative viability (AZD6482 + Pictilisib; first compound 0.253 µM): 0.34
relative viability (AZD6482 + Pictilisib; first compound 0.8 µM): 0.33
relative viability (AZD6482 + Pictilisib; first compound 2.53 µM): 0.202
relative viability (AZD6482 + Pictilisib; first compound 8 µM): 0.35
relative viability ([2]; first compound 0.2 µM): 0.66
relative viability ([2]; first compound 0.6325 µM): 0.669
relative viability ([2]; first compound 2 µM): 0.648
relative viability ([2]; first compound 6.325 µM): 0.0414

SW 1573
relative viability ([1]; first compound 0.2 µM): 0.797
relative viability ([1]; first compound 0.6325 µM): 0.682
relative viability ([1]; first compound 2 µM): 0.733
relative viability ([1]; first compound 6.325 µM): 0.623
relative viability (AZD6482 + Vorinostat; first compound 0.08 µM): 0.766
relative viability (AZD6482 + Vorinostat; first compound 0.253 µM): 0.681
relative viability (AZD6482 + Vorinostat; first compound 0.8 µM): 0.654
relative viability (AZD6482 + Vorinostat; first compound 2.53 µM): 0.58
relative viability (AZD6482 + Vorinostat; first compound 8 µM): 0.48
relative viability (AZD6482 + Pictilisib; first compound 0.08 µM): 0.415
relative viability (AZD6482 + Pictilisib; first compound 0.253 µM): 0.459
relative viability (AZD6482 + Pictilisib; first compound 0.8 µM): 0.445
relative viability (AZD6482 + Pictilisib; first compound 2.53 µM): 0.304
relative viability (AZD6482 + Pictilisib; first compound 8 µM): 0.447
relative viability ([2]; first compound 0.2 µM): 0.496
relative viability ([2]; first compound 0.6325 µM): 0.473
relative viability ([2]; first compound 2 µM): 0.487
relative viability ([2]; first compound 6.325 µM): 0.125
